Data published in US20110294741A1, “USE OF COMPOUNDS IN THE TREATMENT OF TAU-INDUCED CYTOTOXICITIES” (Bioalvo-Servicos, Investigacao e Desenvolvimento em …, priority 2008, published 2011).

Assay: Differential quenching, depth of location in the membrane
Assay type: physicochemical
Settings: phenolic ring, differential quenching with Brownian dynamics simulation
From the text: The x-axis indicates the distance to the bilayer center, being the monolayer thickness 20 Å and y-axis represents the values of the probability density function. Traces (4) and (5) relate to the location of the quenching agents used in the study.
Differential quenching experiments were used to estimate the depth of location of the phenolic ring of the peptides, based on a Brownian dynamics simulation (Fernandes M. X., García de la Torre J., Castanho M. A. 2002. Joint determination by Brownian dynamics and fluorescence quenching of the in-depth location profile of biomolecules in membranes. Anal. Biochem. 307: 1-12.) This methodology allows to determine where the molecules are preferably inserted along the lipid bilayer. The peptides with the amide group show a greater depth of insertion, 4 Å—KTP-NH2, from the lipid/water interface. This is in agreement with KTP-NH2 having a higher affinity for lipids, as desired.

N=C(N)NCCCC(NC(=O)C(N)Cc1ccc(O)cc1)C(N)=O [KTP-NH2, L-Tyr-L-Arg-NH2]
depth of insertion from the lipid/water interface: 4 Å
